Laboratory results: patent US8518980B2, “Treatment of Duchenne muscular dystrophy” (Summit Corporation PLC, priority 2006, dated 2013)

Each compound was assayed on Utrophin A promoter linked to a luciferase reporter gene (H2K/mdx/Utro A reporter cell line) (assay: Luciferase reporter assay (murine H2K cells)). Conditions: Mus musculus, H2K mdx.

Row | Structure (SMILES) | activity at 10 µM [%]
1 | O=C(Nc1cccc(-c2nc3ccccc3[nH]2)c1)c1cccs1 [Example 504, N-(3-(1H-benzo[d]imidazol-2-yl)phenyl)thiophene-2-carboxamide] | < 200
2 | Clc1ccc(-c2nc3ccccc3s2)c(Cl)c1 [Example 595, 2-(2,4-Dichlorophenyl)benzo[d]thiazole] | 201 to 300
3 | Nc1ccc(-c2nc3ccccc3[nH]2)cc1 [Example 475, 4-(1H-benzo[d]imidazol-2-yl)aniline] | < 200
4 | COc1ccc(-c2nc3cc(N)ccc3o2)cc1 [Example 512, 2-(4-methoxyphenyl)benzo[d]oxazol-5-amine] | < 200
5 | O=[N+]([O-])c1ccc(Cl)c(-c2nc3ccccc3s2)c1 [Example 524, 2-(2-chloro-5-nitrophenyl)benzo[d]thiazole] | < 200
6 | Cc1cc(-c2nc3ccccc3s2)ccc1[N+](=O)[O-] [Example 599, 2-(3-Methyl-4-nitrophenyl)benzo[d]thiazole] | > 401
7 | CC(=O)Nc1ccc(-c2nc3cc(C)ccc3o2)cc1 [Example 662, N-(4-(5-methylbenzo[d]oxazol-2-yl)phenyl)acetamide] | 301 to 400
8 | O=S(=O)(c1ccc(-c2nc3ccccc3s2)cc1)N1CCCCC1 [Example 516, 2-(4-(piperidin-1-ylsulfonyl)phenyl)benzo[d]thiazole] | 201 to 300
9 | O=C(Nc1nc2ccccc2s1)c1ccccc1Br [Example 616, N-(benzo[d]thiazol-2-yl)-2-bromobenzamide] | > 401
10 | COc1ccc(-c2nc3ccccc3n2C)cc1OC [Example 521, 2-(3,4-dimethoxyphenyl)-1-methyl-1H-benzo[d]imidazole] | < 200
11 | CCCCc1nc2cc(S(=O)(=O)CC)ccc2o1 [Example 570, 2-butyl-5-(ethylsulfonyl)benzo[d]oxazole] | < 200
12 | CCc1ccc2oc(-c3cccc(NC(C)=O)c3)nc2c1 [Example 642, N-(3-(5-ethylbenzo[d]oxazol-2-yl)phenyl)acetamide] | 301 to 400
13 | COc1ccc(-c2nc3ccccc3[nH]2)cc1 [Example 470, 2-(4-methoxyphenyl)-1H-benzo[d]imidazole] | 201 to 300
14 | Clc1ccc(OCc2nc3ccccc3[nH]2)c(Cl)c1 [Example 461, 2-((2,4-dichlorophenoxy)methyl)-1H-benzo[d]imidazole] | 301 to 400
15 | COCc1nc2ccccc2[nH]1 [Example 499, 2-(methoxymethyl)-1H-benzo[d]imidazole] | < 200
16 | c1ccc(-c2ccc(-c3nc4ccccc4[nH]3)cc2)cc1 [Example 558, 2-(biphenyl-4-yl)-1H-benzo[d]imidazole] | < 200
17 | Cc1ccc2nc(-c3ccc(C(F)(F)F)cc3)oc2c1 [Example 611, 6-Methyl-2-(4-(trifluoromethyl)phenyl)benzo[d]oxazole] | 301 to 400
18 | Cc1ccc2nc(NC(=O)c3ccco3)sc2c1 [Example 652, N-(6-methylbenzo[d]thiazol-2-yl)furan-2-carboxamide] | 301 to 400
19 | C(=C\c1nc2ccccc2[nH]1)/c1ccccc1 [Example 547, (E)-2-styryl-1H-benzo[d]imidazole] | 301 to 400
20 | Clc1ccc(-c2nc3cc(CN4CCCCC4)ccc3o2)cc1 [Example 469, 2-(4-chlorophenyl)-5-(piperidin-1-ylmethyl)benzo[d]oxazole] | < 200
21 | c1ccc2nc(-c3nc4ccccc4s3)ccc2c1 [Example 639, 2-(quinolin-2-yl)benzo[d]thiazole] | 301 to 400
22 | Cc1nc2ccc(NC(=O)NC(=O)c3ccccc3Cl)cc2o1 [Example 468, 2-chloro-N-(2-methylbenzo[d]oxazol-6-ylcarbamoyl)benzamide] | < 200
23 | COc1ccc(-c2nc3cc(N)ccc3[nH]2)cc1 [Example 535, 2-(4-methoxyphenyl)-1H-benzo[d]imidazol-5-amine] | 201 to 300
24 | O=C(Nc1nc2ccccc2s1)c1cc2ccccc2o1 [Example 626, N-(benzo[d]thiazol-2-yl)benzofuran-2-carboxamide] | > 401
25 | CN(C)S(=O)(=O)c1ccc2nc(NC(=O)c3cccs3)sc2c1 [Example 683, N-(6-(N,N-dimethylsulfamoyl)benzo[d]thiazol-2-yl)thiophene-2-carboxamide] | 201 to 300
26 | COc1ccc(CSc2nc3ccccc3n2C)cc1F [Example 645, 2-(3-fluoro-4-methoxybenzylthio)-1-methyl-1H-benzo[d]imidazole] | 301 to 400
27 | Nc1ccc2oc(-c3ccc(Cl)c(Cl)c3)nc2c1 [Example 480, 2-(3,4-dichlorophenyl)benzo[d]oxazol-5-amine] | 201 to 300

Row | Structure (SMILES) | activity at 10 µM [%]
28 | Cc1cc2oc(C(=O)NCc3ccncc3)c(C)c2cc1C [Example 656, 3,5,6-trimethyl-N-(pyridin-4-ylmethyl)benzofuran-2-carboxamide] | 301 to 400
29 | Nc1c(C(=O)Nc2ccc(F)cc2)sc2nc3c(cc12)CCC3 [Example 628, 3-amino-N-(4-fluorophenyl)-6,7-dihydro-5H-cyclopenta[e]thieno[2,3-b]pyridine-2-carboxamide] | > 401
30 | Nc1ccc(-c2nc3cc(Cl)cc(Cl)c3o2)cc1 [Example 518, 4-(5,7-dichlorobenzo[d]oxazol-2-yl)aniline] | 201 to 300
31 | CC(=O)c1c(C)nc(Nc2nc3ccccc3o2)nc1C [Example 681, 1-(2-(benzo[d]oxazol-2-ylamino)-4,6-dimethylpyrimidin-5-yl)ethanone] | 201 to 300
32 | Cc1ccc2nc(-c3ccc(NC(=O)c4cccs4)cc3)oc2c1 [Example 672, N-(4-(6-methylbenzo[d]oxazol-2-yl)phenyl)thiophene-2-carboxamide] | 201 to 300
33 | Cc1ccc2[nH]c(-c3sc4nc(C)ccc4c3N)nc2c1 [Example 632, 6-methyl-2-(5-methyl-1H-benzo[d]imidazol-2-yl)thieno[2,3-b]pyridin-3-amine] | > 401
34 | COc1ccc(-c2nc3cc([N+](=O)[O-])ccc3[nH]2)cc1 [Example 586, 2-(4-Methoxyphenyl)-5-nitro-1H-benzo[d]imidazole] | 201 to 300
35 | Cc1ccc(-c2nc3ccccc3[nH]2)cc1N [Example 620, 5-(1H-benzo[d]imidazol-2-yl)-2-methylaniline] | > 401
36 | COc1ccc(OCc2nc3ccccc3n2C)cc1 [Example 528, 2-((4-methoxyphenoxy)methyl)-1-methyl-1H-benzo[d]imidazole] | 201 to 300
37 | Cc1ccc(OCc2nc3ccccc3[nH]2)cc1 [Example 531, 2-(p-tolyloxymethyl)-1H-benzo[d]imidazole] | 201 to 300
38 | Nc1cc(-c2nc3ccccc3[nH]2)ccc1Cl [Example 653, 5-(1H-benzo[d]imidazol-2-yl)-2-chloroaniline] | 301 to 400
39 | O=C(Nc1ccc2c(c1)OCO2)c1sc2ccccc2c1Cl [Example 618, N-(benzo[d][1,3]dioxol-5-yl)-3-chlorobenzo[b]thiophene-2-carboxamide] | > 401
40 | O=C(Cc1cccs1)Nc1ccc(-c2nc3ccccc3[nH]2)cc1 [Example 493, N-(4-(1H-benzo[d]imidazol-2-yl)phenyl)-2-(thiophen-2-yl)acetamide] | < 200
41 | CCC(=O)Nc1cccc(-c2nc3cc(C)ccc3o2)c1 [Example 644, N-(3-(5-methylbenzo[d]oxazol-2-yl)phenyl)propionamide] | 301 to 400
42 | Nc1ccc2nc(-c3ccc(-c4nc5ccc(N)cc5[nH]4)cc3)[nH]c2c1 [Example 476, 2,2′-(1,4-phenylene)bis(1H-benzo[d]imidazol-6-amine)] | < 200
43 | O=C(Nc1nc2ccc(F)cc2s1)c1ccccc1Br [Example 629, 2-bromo-N-(6-fluorobenzo[d]thiazol-2-yl)benzamide] | > 401
44 | Oc1cccc(-c2nc3ccccc3s2)c1 [Example 594, 3-(Benzo[d]thiazol-2-yl)phenol] | > 401
45 | Cc1ccc2nc(-c3ccc(N)cc3)sc2c1 [Example 664, 4-(6-methylbenzo[d]thiazol-2-yl)aniline] | 201 to 300
46 | COc1ccc(-c2nc3cc(NC(C)=O)ccc3o2)cc1Cl [Example 519, N-(2-(3-chloro-4-methoxyphenyl)benzo[d]oxazol-5-yl)acetamide] | 201 to 300
47 | Cc1nc2ccc(NC(=O)Nc3ccccc3)cc2o1 [Example 466, 1-(2-methylbenzo[d]oxazol-6-yl)-3-phenylurea] | < 200
48 | Cc1ccccc1C(=O)Nc1nc2ccccc2[nH]1 [Example 648, N-(1H-benzo[d]imidazol-2-yl)-2-methylbenzamide] | 301 to 400
49 | CC(=O)Nc1cccc(-c2nc3ccccc3s2)c1 [Example 513, N-(3-(benzo[d]thiazol-2-yl)phenyl)acetamide] | < 200
50 | CCOCC(=O)Nc1ccc(-c2nc3ccc(C)cc3s2)cc1 [Example 657, 2-ethoxy-N-(4-(6-methylbenzo[d]thiazol-2-yl)phenyl)acetamide] | 301 to 400
51 | Oc1ccccc1-c1nc2ccccc2s1 [Example 483, 2-(benzo[d]thiazol-2-yl)phenol] | < 200
52 | Cc1ccc2oc(-c3cc(NC(=O)c4cncc(Br)c4)ccc3O)nc2c1 [Example 684, 5-bromo-N-(4-hydroxy-3-(5-methylbenzo[d]oxazol-2-yl)phenyl)nicotinamide] | 201 to 300
53 | CCC(C)C(=O)Nc1ccc(-c2nc3ccccc3[nH]2)cc1 (centres unmarked) [Example 631, N-(4-(1H-benzo[d]imidazol-2-yl)phenyl)-2-methylbutanamide] | > 401
54 | COc1ccc(-c2nc3cc([N+](=O)[O-])ccc3[nH]2)cc1OC [Example 520, 2-(3,4-dimethoxyphenyl)-5-nitro-1H-benzo[d]imidazole] | < 200

Same assay, conditions: Table 1; luciferase level relative to control; final concentration of 10 μM

Row | Structure (SMILES) | Activity
55 | Clc1ccc(-c2nc3cc4c(cc3o2)OCO4)cc1Cl [Example 361, 2-(3,4-chlorophenyl)-5,6-methylenedioxybenzoxazole] | + (Up to 200% relative to control)
56 | CC(=O)c1ccc2oc(-c3ccc(Cl)c(Cl)c3)nc2c1 [Example 453, 1-(2′-(3″,4″-Dichlorophenyl)benzo[d]oxazol-5′-yl)ethanone] | ++++ (Above 401% relative to control)
